Literature values as cited in patent US9555150B2, “Absorbent articles comprising an organic zinc salt and an anti-bacterial agent or alkali metal chloride or alkaline earth metal chloride” (SCA HYGIENE PRODUCTS AB, priority 2006, dated 2017).

Settings: measured in water at 25° C

pK	Compound
4.76	C/C=C/C=C/C(=O)O [sorbic acid]
4.75	CC(=O)O [Acetic acid, acetic acid]

Compound	pK
O=C(O)c1ccccc1 [benzoic acid]	4.19
